Where two headings read alike, the source gives them in different places. Marks after values point to notes of the source that are not given here.
Legend:
IL-1β = assay: Inhibition of pro-inflammatory IL-1β in brain after curcumin administration; format: in vivo; settings: mice, plasma levels 0.25-0.5 micromolar
iNOS = assay: Inhibition of iNOS in brain after curcumin administration; format: in vivo; settings: mice, plasma levels 0.25-0.5 micromolar
[1] = system: active c-jun kinase (p)JNK; assay: Inhibition of active c-jun kinase in brain after curcumin administration; format: in vivo; settings: mice, plasma levels 0.25-0.5 micromolar
[2] = Plasma levels after chronic Curc or TC administration in diet (500 ppm chow, 4 months); format: in vivo, APPsw mice; settings: for Plasma (μM) / concentration at 4 months: APPsw mice, 500 mg/kg chow (2.5 mg/day), 4 months; for concentration at 4 months: mouse, plasma, oral
[3] = format: physicochemical
Excerpt: Therefore, providing a curcuminoid-to-antioxidant ratio of about 10:1 or higher should be sufficient to prevent hydrolysis during absorption, and enhance bioavailability. […] Thus, additional antioxidant need not add prohibitively to the bulk of a formulation.

amyloid accumulation = assay: Amyloid accumulation in vivo in APP Tg mice
in vivo = settings: mouse
[4] = Conversion of curcumin to tetrahydrocurcumin in plasma; format: in vivo
[5] = 4 hr after administration

Compound: COc1cc(/C=C/C(=O)CC(=O)/C=C/c2ccc(O)c(OC)c2)ccc1O [Curc, curcumin]
- inhibition of pro-inflammatory IL-1β (IL-1β): ~50%
- inhibition of iNOS (iNOS): ~50%
- Brain (μg/10 mg protein) (mouse, in vivo, ip, 4 hr): 0.074 ± 0.003^b μg/10 mg protein
- inhibition of active c-jun kinase (p)JNK [1]: ~50%
- Plasma (μM) [2]: (0.095 μM)
- concentration at 4 months [2]: 35 ± 14 ng/mL
- stability in aqueous solution [3]: unstable in aqueous solutions above pH 7.0
- amyloid accumulation (amyloid accumulation): effectively reduces
- concentration at 4 hr (in vivo): 250 to 500 nM
- curcuminoids in plasma naturally converted to tetrahydrocurcumin [4]: 25%

Compound: O=C1O[C@H]([C@@H](O)CO)C(O)=C1O [ascorbic acid]
- retarding curcumin hydrolysis ([3]; 25 micromolar curcumin, PBS pH 7.4, absorbance at 426 nm (FIG. 2)): very effective
- retarding hydrolysis of curcumin ([3]; curcumin-to-ascorbic acid ratio of 1:1 or 2:1, absorbance at 450 and 405 nm (FIGS. 3 and 4)): very effective
- retarding hydrolysis of curcumin ([3]; curcumin-to-ascorbic acid ratios higher than 2:1 (FIGS. 3 and 4)): somewhat diminished effectiveness

Compound: COc1cc(CCC(=O)CC(=O)CCc2ccc(O)c(OC)c2)ccc1O [TC, tetrahydrocurcumin]
- Brain (μg/10 mg protein) (gav, dose 147.0 μg, 4 hr after administration): 0.027 ± 0.002^a μg/10 mg protein
- Brain (μg/10 mg protein) (i.m., dose 73.5 μg, 4 hr after administration): 0.223 ± 0.023^c μg/10 mg protein
- Brain (μg/10 mg protein) (i.p., dose 147.0 μg, 4 hr after administration): 0.076 ± 0.003^b μg/10 mg protein
- Plasma (μM) [2]: (0.734 μM)
- concentration at 4 months [2]: 270 ± 3 ng/mL
- plasma levels relative to curcumin ([2]; same oral doses, our data and data in the literature): 7-8 times
- stability in aqueous solution [3]: stable even at basic pH
- Plasma (μM) ([5]; i.m., dose 73.5 μg): (2.639 μM)
- Plasma (μM) ([5]; i.p., dose 147.0 μg): (2.302 μM)
- concentration at 4 hr (in vivo; 73.5 μg): 971 ± 92 ng/mL
- concentration at 4 hr (in vivo; ip, 147 μg): 847 ± 19 ng/mL

Source: patent publication US9192644B2, “Bioavailable curcuminoid formulations for treating Alzheimer's disease and other age-related disorders” (The Regents of the University of California, priority 2006, dated 2015)
